In patent publication US20260283972A1, “A COMPOUND FOR PREPARING LIPID NANOPARTICLES ENCAPSULATING AN AGENT, NANOPARTICLE COMPOSITION COMPRISING SAID COMPOUND AND RELATED METHODS THEREOF” (AGENCY FOR SCIENCE, TECHNOLOGY AND RESEARCH, priority 2023, published 2026):
Entries after “also recorded” stand apart in the source; their conditions may differ.

How the values were obtained:
Type in all cases: cell-based
[1] = system: SH-SY5Y cells; experiment: In vitro neurotoxicity, cell viability (AlamarBlue)
Method: HEK293 cells were grown in Dulbecco's […] (DMEM) supplemented with 10% FBS and 5% penicillin/streptomycin (Corning). SY-SY5Y cells were grown with a mixture of DMEM/Ham's F-12 with 2 mM L-glutamine (50:50 v/v) supplemented with 10% FBS and 5% penicillin/streptomycin. All cultures were grown in 37° C. incubators supplemented with 5% CO2 and were cultured according to suppliers' instructions. For all screening, cells were plated in 96-well plates at 10,000 cells per well in 100 μL of the appropriate media outlined above for the different cells. The formulated LNPs containing polymyxin B and free polymyxin B were then added to the wells at the desired polymyxin B concentration (e.g., 300, 150, 75, 37.5, 18.8, 9.4 μg mL^−1). The polymyxin B concentration of formulated LNPs was determined using the calibration plot of polymyxin B standards.

[2] = system: Pseudomonas aeruginosa (ATCC No. 9027); experiment: Antibacterial activity in vitro, broth microdilution MIC and MBC; details: for MIC P. aeruginosa: 24 h at 37° C.
Method: (§1) The MICs (minimum inhibitory concentrations) of the formulated LNPs containing polymyxin B and free polymyxin B against Gram-negative bacteria were determined using a broth microdilution method. Briefly, the bacteria were incubated overnight in MHB, and the bacteria suspension was diluted with MHB to achieve a concentration of […] (CFU)/mL (O.D. 600=0.100). This was followed by a 1000-fold dilution in MHB. The bacterial suspension was then seeded into a 96-well plate (80 μL per well) and mixed with 20 μL of MHB containing different polymyxin B-loaded LNPs or free polymyxin B concentrations. The 96-well plate was incubated for 24 h at 37° C. (bacteria). […] The MIC experiments were performed with four independent replicates. The MBCs (minimum bactericidal concentrations) were evaluated at the end of the MIC experiment.
(§2) The microbial suspension was then spread on LB agar plates, and the plates were incubated at 37° C. for 24 h to determine CFU on each agar plate. The experiments were performed in replicates of five. The MBC experiment was conducted with three independent replicates.

[3] = system: Escherichia coli (ATCC No. 25922); experiment: as above; details: for MIC E. coli: 24 h at 37° C.
Method: as §1, §2

[4] = Table 6, experiment with 2nd formulation
[5] = Table 7, experiment with 1st formulation

With Polymyxin B [Polymyxin B (PB)] the “viability of SH-SY5Y cells” value ([1]; 300 μg mL^−1 of polymyxin B, 24 h incubation) was ~ 76%, the “neurotoxicity / cell toxicity against SH-SY5Y” value ([1]; high concentration, 300 μg mL^−1, listed as free polymyxin B) was “relatively pronounced cell toxicity; also recorded: Pronounced neurotoxicity was observed” and the “MBC P. aeruginosa” value [2, 4] was 2.50 µg/mL. The “MIC P. aeruginosa” value [2, 4] was 1.25 µg/mL, the “MBC P. aeruginosa” value [2, 5] was 5.0 µg/mL and the “MIC P. aeruginosa” value [2, 5] was 5.0 µg/mL. For the same substance, the “MBC E. coli” value [3, 4] was 5.0 µg/mL, the “MIC E. coli” value [3, 4] was 1.25 µg/mL and the “MBC E. coli” value [3, 5] was 5.0 µg/mL. The “MIC E. coli” value [3, 5] was 5.0 µg/mL.
